From PubChem BioAssay (NCI)
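Interpolation was linear, between the two tested concentrations surrounding the appropriate level; five concentrations were tested over 48 hours in 96-well plates. Here, GI50 denotes the concentration required for 50% inhibition of growth. TGI marks complete inhibition of growth.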

How the values were obtained:
Assay in all cases: NCI tumour cell line growth inhibition, 48 h
MOLT-4 leukemia = test system: MOLT-4 leukemia
SNB-19 CNS = test system: SNB-19 CNS
SW-620 colon = test system: SW-620 colon
A498 renal = test system: A498 renal
SK-MEL-28 melanoma = test system: SK-MEL-28 melanoma
SN12C renal = test system: SN12C renal
HOP-92 NSCLC = test system: HOP-92 NSCLC
NCI/ADR-RES ovarian = test system: NCI/ADR-RES ovarian
CCRF-CEM leukemia = test system: CCRF-CEM leukemia
OVCAR-8 ovarian = test system: OVCAR-8 ovarian
HCT-116 colon = test system: HCT-116 colon
OVCAR-5 ovarian = test system: OVCAR-5 ovarian
M14 melanoma = test system: M14 melanoma
HCC-2998 colon = test system: HCC-2998 colon
MALME-3M melanoma = test system: MALME-3M melanoma
BT-549 breast = test system: BT-549 breast
K-562 leukemia = test system: K-562 leukemia
UACC-257 melanoma = test system: UACC-257 melanoma
KM12 colon = test system: KM12 colon
HT29 colon = test system: HT29 colon
ACHN renal = test system: ACHN renal
TK-10 renal = test system: TK-10 renal
UO-31 renal = test system: UO-31 renal
CAKI-1 renal = test system: CAKI-1 renal
IGROV1 ovarian = test system: IGROV1 ovarian
NCI-H226 lung = test system: NCI-H226 lung
A549 NSCLC = test system: A549 NSCLC
SF-268 CNS = test system: SF-268 CNS
COLO 205 colon = test system: COLO 205 colon
RXF 393 renal = test system: RXF 393 renal
SK-MEL-2 melanoma = test system: SK-MEL-2 melanoma
U251 CNS = test system: U251 CNS
OVCAR-3 ovarian = test system: OVCAR-3 ovarian
HCT-15 colon = test system: HCT-15 colon
RPMI-8226 leukemia = test system: RPMI-8226 leukemia
LOX IMVI melanoma = test system: LOX IMVI melanoma
T-47D breast = test system: T-47D breast
SK-MEL-5 melanoma = test system: SK-MEL-5 melanoma
EKVX NSCLC = test system: EKVX NSCLC
SF-295 CNS = test system: SF-295 CNS
UACC-62 melanoma = test system: UACC-62 melanoma
786-0 renal = test system: 786-0 renal
HL-60(TB) leukemia = test system: HL-60(TB) leukemia
OVCAR-4 ovarian = test system: OVCAR-4 ovarian
HS 578T breast = test system: HS 578T breast
PC-3 prostate = test system: PC-3 prostate
SNB-75 CNS = test system: SNB-75 CNS
NCI-H23 lung = test system: NCI-H23 lung
SK-OV-3 ovarian = test system: SK-OV-3 ovarian
DU-145 prostate = test system: DU-145 prostate
MDA-MB-231 breast = test system: MDA-MB-231 breast
MCF7 breast = test system: MCF7 breast
HOP-62 NSCLC = test system: HOP-62 NSCLC
NCI-H460 lung = test system: NCI-H460 lung
NCI-H522 lung = test system: NCI-H522 lung
MDA-MB-435 = test system: MDA-MB-435
SF-539 CNS = test system: SF-539 CNS

CN(C)CCNc1c2c(c(NCCN(C)C)c3c(CN(C)C)c[nH]c13)C(=O)c1ccccc1C2=O
GI50 (MOLT-4 leukemia): 0.582 µM | TGI (MOLT-4 leukemia): > 38.1 µM | GI50 (SNB-19 CNS): 16.1 µM | TGI (SNB-19 CNS): 40 µM | GI50 (SW-620 colon): 2.7 µM | TGI (SW-620 colon): 9.72 µM | GI50 (A498 renal): 18.7 µM | TGI (A498 renal): 33.6 µM | GI50 (SK-MEL-28 melanoma): 16.7 µM | TGI (SK-MEL-28 melanoma): 38.2 µM | GI50 (SN12C renal): 1.18 µM | TGI (SN12C renal): 7.32 µM | GI50 (HOP-92 NSCLC): 2.91 µM | TGI (HOP-92 NSCLC): 15.8 µM | GI50 (NCI/ADR-RES ovarian): 4.53 µM | TGI (NCI/ADR-RES ovarian): 20.5 µM | GI50 (CCRF-CEM leukemia): 0.639 µM | TGI (CCRF-CEM leukemia): 2.58 µM | GI50 (OVCAR-8 ovarian): 2.16 µM | TGI (OVCAR-8 ovarian): 14.2 µM | GI50 (HCT-116 colon): 0.676 µM | TGI (HCT-116 colon): > 100 µM | GI50 (OVCAR-5 ovarian): 16 µM | TGI (OVCAR-5 ovarian): 34.6 µM | GI50 (M14 melanoma): 2.48 µM | TGI (M14 melanoma): 7.57 µM | GI50 (HCC-2998 colon): 2.14 µM | TGI (HCC-2998 colon): 8.61 µM | GI50 (MALME-3M melanoma): 6.5 µM | TGI (MALME-3M melanoma): 15.7 µM | GI50 (BT-549 breast): 18.2 µM | TGI (BT-549 breast): 36.9 µM | GI50 (K-562 leukemia): 2.59 µM | TGI (K-562 leukemia): 14.6 µM | GI50 (UACC-257 melanoma): 9.15 µM | TGI (UACC-257 melanoma): > 27.4 µM | GI50 (KM12 colon): 1.6 µM | TGI (KM12 colon): 7.3 µM | GI50 (HT29 colon): 2.56 µM | TGI (HT29 colon): 27.4 µM | GI50 (ACHN renal): 1.15 µM | TGI (ACHN renal): 5.88 µM | GI50 (TK-10 renal): 2.08 µM | TGI (TK-10 renal): 7.06 µM | GI50 (UO-31 renal): 3.76 µM | TGI (UO-31 renal): 16.8 µM | GI50 (CAKI-1 renal): 4.73 µM | TGI (CAKI-1 renal): 11.5 µM | GI50 (IGROV1 ovarian): 2.22 µM | TGI (IGROV1 ovarian): 11.7 µM | GI50 (NCI-H226 lung): 15 µM | TGI (NCI-H226 lung): 35.5 µM | GI50 (A549 NSCLC): 2.88 µM | TGI (A549 NSCLC): 9.98 µM | GI50 (SF-268 CNS): 5.39 µM | TGI (SF-268 CNS): 22.1 µM | GI50 (COLO 205 colon): 13.6 µM | TGI (COLO 205 colon): > 53.8 µM | GI50 (RXF 393 renal): 3.71 µM | TGI (RXF 393 renal): 19.5 µM | GI50 (SK-MEL-2 melanoma): 18.3 µM | TGI (SK-MEL-2 melanoma): 42.9 µM | GI50 (U251 CNS): 2.57 µM | TGI (U251 CNS): 10.4 µM | GI50 (OVCAR-3 ovarian): 4.29 µM | TGI (OVCAR-3 ovarian): 23.9 µM | GI50 (HCT-15 colon): 1.35 µM | TGI (HCT-15 colon): 6.98 µM | GI50 (RPMI-8226 leukemia): 0.545 µM | TGI (RPMI-8226 leukemia): 2.26 µM | GI50 (LOX IMVI melanoma): 1.05 µM | TGI (LOX IMVI melanoma): 2.73 µM | GI50 (T-47D breast): 22.3 µM | TGI (T-47D breast): 46.8 µM | GI50 (SK-MEL-5 melanoma): 5.65 µM | TGI (SK-MEL-5 melanoma): 10.6 µM | GI50 (EKVX NSCLC): 4.31 µM | TGI (EKVX NSCLC): 17.3 µM | GI50 (SF-295 CNS): 3.14 µM | TGI (SF-295 CNS): 9.83 µM | GI50 (UACC-62 melanoma): 14.7 µM | TGI (UACC-62 melanoma): 29.9 µM | GI50 (786-0 renal): 0.356 µM | TGI (786-0 renal): 8.91 µM | GI50 (HL-60(TB) leukemia): 3.02 µM | TGI (HL-60(TB) leukemia): 7.48 µM | GI50 (OVCAR-4 ovarian): 8.23 µM | TGI (OVCAR-4 ovarian): 34.1 µM | GI50 (HS 578T breast): 7.49 µM | TGI (HS 578T breast): 19 µM | GI50 (PC-3 prostate): 0.612 µM | TGI (PC-3 prostate): 3.2 µM | GI50 (SNB-75 CNS): 19.2 µM | TGI (SNB-75 CNS): 40.9 µM | GI50 (NCI-H23 lung): 3.91 µM | TGI (NCI-H23 lung): 14.6 µM | GI50 (SK-OV-3 ovarian): 17.4 µM | TGI (SK-OV-3 ovarian): 40.2 µM | GI50 (DU-145 prostate): 4.2 µM | TGI (DU-145 prostate): 15.1 µM | GI50 (MDA-MB-231 breast): 1.61 µM | TGI (MDA-MB-231 breast): 9.39 µM | GI50 (MCF7 breast): 1.81 µM | TGI (MCF7 breast): 10 µM | GI50 (HOP-62 NSCLC): 0.946 µM | TGI (HOP-62 NSCLC): 11.9 µM | GI50 (NCI-H460 lung): 2.2 µM | TGI (NCI-H460 lung): 9.49 µM | GI50 (NCI-H522 lung): 3.39 µM | TGI (NCI-H522 lung): 18.7 µM | GI50 (MDA-MB-435): 2.75 µM | TGI (MDA-MB-435): 8.04 µM | GI50 (SF-539 CNS): 3.85 µM | TGI (SF-539 CNS): 10.2 µM
